# Results reported in patent publication US20230374038A1, “MODULATORS OF CYSTIC FIBROSIS TRANSMEMBRANE CONDUCTANCE REGULATOR” (VERTEX PHARMACEUTICALS INCORPORATED, priority 2020, published 2023).
# How the values were obtained:
# [1] = target: T1, CFTR (Homo sapiens, UniProt P13569, DEL508-508); assay: HBE Assay: Ussing chamber assay of CFTR-mediated short-circuit currents in F508del/MF-HBE cells with 1 μM Ivacaftor; type: cell-based; conditions: 20% human serum; for EC50 / HBE Max Activity / Emax: 18-24 hours; for HBE Activity at 10 μM: single fixed concentration of 10 μM; for Emax: compared to known Vertex corrector with 18 μM Tezacaftor and 1 μM Ivacaftor, read-out: HBE Max activity (%)
# T1 construct: endogenous in cells; host or cells: primary human bronchial epithelial cells, F508del/MF genotype
# T1 sequence (P13569 with tags, fused parts or gaps DEL508-508): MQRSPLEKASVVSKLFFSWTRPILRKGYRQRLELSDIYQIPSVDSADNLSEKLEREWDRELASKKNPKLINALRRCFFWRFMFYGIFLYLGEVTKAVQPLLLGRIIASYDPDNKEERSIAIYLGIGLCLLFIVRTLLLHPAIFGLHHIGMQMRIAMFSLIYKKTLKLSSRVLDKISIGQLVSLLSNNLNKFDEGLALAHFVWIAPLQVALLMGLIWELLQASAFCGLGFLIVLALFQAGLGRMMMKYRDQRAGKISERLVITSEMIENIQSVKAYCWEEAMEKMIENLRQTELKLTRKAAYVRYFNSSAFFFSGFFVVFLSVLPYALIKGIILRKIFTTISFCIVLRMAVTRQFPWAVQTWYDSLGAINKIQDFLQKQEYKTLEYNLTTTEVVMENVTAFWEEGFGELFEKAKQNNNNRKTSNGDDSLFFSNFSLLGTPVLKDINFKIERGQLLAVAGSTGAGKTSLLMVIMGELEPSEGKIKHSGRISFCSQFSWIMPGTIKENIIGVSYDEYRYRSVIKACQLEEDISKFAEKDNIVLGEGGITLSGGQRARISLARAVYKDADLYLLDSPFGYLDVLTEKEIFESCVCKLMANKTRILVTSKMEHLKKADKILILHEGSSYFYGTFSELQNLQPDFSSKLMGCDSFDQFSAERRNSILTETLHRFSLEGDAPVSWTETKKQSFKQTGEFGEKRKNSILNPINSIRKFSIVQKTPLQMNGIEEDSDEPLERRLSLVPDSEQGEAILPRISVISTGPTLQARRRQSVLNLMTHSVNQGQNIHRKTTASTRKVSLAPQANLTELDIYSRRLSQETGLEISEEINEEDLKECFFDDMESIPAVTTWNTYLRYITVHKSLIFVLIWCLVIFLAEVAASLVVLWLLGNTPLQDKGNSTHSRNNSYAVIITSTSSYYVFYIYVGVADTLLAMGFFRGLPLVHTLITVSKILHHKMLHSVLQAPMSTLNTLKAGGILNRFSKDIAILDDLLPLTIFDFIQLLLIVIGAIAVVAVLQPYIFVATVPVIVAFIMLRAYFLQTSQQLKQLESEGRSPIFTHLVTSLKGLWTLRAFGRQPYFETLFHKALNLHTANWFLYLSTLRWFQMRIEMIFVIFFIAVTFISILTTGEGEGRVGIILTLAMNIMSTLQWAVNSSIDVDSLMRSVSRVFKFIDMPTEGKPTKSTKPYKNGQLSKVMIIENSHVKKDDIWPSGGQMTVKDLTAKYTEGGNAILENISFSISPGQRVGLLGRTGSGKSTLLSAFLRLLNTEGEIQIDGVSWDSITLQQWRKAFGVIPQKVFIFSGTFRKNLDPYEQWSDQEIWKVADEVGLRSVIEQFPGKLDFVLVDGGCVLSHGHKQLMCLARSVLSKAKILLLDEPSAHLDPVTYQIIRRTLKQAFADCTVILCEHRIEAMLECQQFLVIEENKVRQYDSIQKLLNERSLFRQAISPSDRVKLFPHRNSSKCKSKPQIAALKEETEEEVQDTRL
# Procedure: Ussing chamber experiments were performed using human bronchial epithelial (HBE) cells derived from CF subjects heterozygous for F508del and a minimal function CFTR mutation (F508del/MF-HBE) and cultured as previously described (Neuberger T, Burton B, Clark H, Van Goor F Methods Mol Biol 2011:741:39-54). After four days the apical media was removed, and the cells were grown at an air liquid interface for >14 days prior to use.
# (§1) To isolate the CFTR-mediated short-circuit (ISC) current, F508del/MF-HBE grown on Costar® Snapwell™ cell culture inserts were mounted in an Ussing chamber and the transepithelial ISC was measured under voltage-clamp recording conditions (Vhold=0 mV) at 37° C. The basolateral solution contained (in mM) 145 NaCl, 0.83 K2HIPO4, 3.3 KH2PO4, 1.2 MgCl2, 1.2 CaCl2), 10 Glucose, 10 HEPES (pH adjusted to 7.4 with NaOH) and the apical solution contained (in mM) 145 NaGluconate, 1.2 MgCl2, 1.2 CaCl2), 10 glucose, 10 HEPES (pH adjusted to 7.4 with NaOH) and 30 μM amiloride to block the epithelial sodium channel. Forskolin (20 μM) was added to the apical surface to activate CFTR, followed by apical addition of a CFTR inhibitor cocktail consisting of BPO, GlyH-101, and CFTR inhibitor 172 (each at 20 μM final assay concentration) to specifically isolate CFTR currents. The CFTR-mediated ISC (μA/cm^2) for each condition was determined from the peak forskolin response to the steady-state current following inhibition.
# The activity of the CFTR corrector compounds on the CFTR-mediated ISC was determined in Ussing chamber studies as described above. The F508del/MF-HBE cell cultures were either incubated with the corrector compounds at a range of concentrations in combination with 1 μM Ivacaftor or were incubated with the corrector compounds at a single fixed concentration of 10 μM in combination with 1 μM Ivacaftor for 18-24 hours at 37° C. and in the presence of 20% human serum. The concentration of corrector compounds with 1 μM Ivacaftor during the 18-24 hours incubations was kept constant throughout the Ussing chamber measurement of the CFTR-mediated ISC to ensure compounds were present throughout the entire experiment.
# as §1, with “K2HPO4,” for “K2HIPO4,”
# [2] = target: CFTR (Homo sapiens, UniProt P13569); assay: Membrane Potential Dye, Enteroid Assay B; type: cell-based; conditions: for EC50: read-out: Ent. B EC50
# CFTR (Homo sapiens, UniProt P13569), sequence (P13569 with tags, fused parts or gaps DEL508-508): as above
# Outline: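 Human intestinal enteroids seeded at 5000 cells/well, treated with compound 18-24 h at 37 °C, then loaded 25 min with methyl oxonol membrane-potential dye plus CaCC blockers. Chloride transport started in chloride-free buffer with 10 μM forskolin, 100 μM IBMX and 300 nM Compound III, read 15 min; expressed as % of triple-combination control.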
# [3] = range of concentrations with 1 μM Ivacaftor
SMILES,EC50 ([1]; with 1 μM Ivacaftor),HBE Max Activity ([1]; with 1 μM Ivacaftor),other results
"Cc1cccc(CC2CCCC2)c1-c1nc2nc(c1C)OC[C@@H](CC(C)(C)C)NC(=O)c1cccc(c1)S(=O)(=O)N2 (atropisomer, axis not shown) [Compound 225]",–,–,HBE Activity at 10 μM ([1]; with 1 μM Ivacaftor): +++ (+++ is >600%)
"Cc1cccc(CC(C)C)c1-c1nc2nc(c1C)OC[C@@H](C)N(Cc1ncc(N3CCC(C)(C)C3)cn1)C(=O)c1cccc(c1)S(=O)(=O)N2 (atropisomer, axis not shown) [Compound 242]",< 1000 nM,+++ (+++ is >600%),–
Cc1cccc(C)c1-c1nc2nc(c1F)OC[C@@H](CC(C)C)N(Cc1ncc(OC3CCC3)cn1)C(=O)c1cccc(c1)S(=O)(=O)N2 [Compound 338],–,–,"EC50 [1, 3]: < 1000 nM; Emax ([1]; with 1 μM Ivacaftor): > 60%"
"Cc1cccc(CC2CCCCC2)c1-c1nc2nc(c1C(F)(F)F)OC[C@@H](CC(C)(C)C)N(Cc1ccc(N3CCOCC3)cn1)C(=O)c1cccc(c1)S(=O)(=O)N2 (atropisomer, axis not shown) [Compound 248]",–,–,HBE Activity at 10 μM ([1]; with 1 μM Ivacaftor): +++ (+++ is >600%)
COc1c2nc(nc1-c1c(C)cccc1C)NS(=O)(=O)c1cccc(c1)C(=O)N(Cc1ncc(OC3CCC3)cn1)[C@H](CC(C)C)CO2 [Compound 349],–,–,"EC50 [1, 3]: < 1000 nM; Emax ([1]; with 1 μM Ivacaftor): > 60%"
"Cc1cccc(CC(C)C)c1-c1nc2nc(c1C)OC[C@@H](CC(C)C)N(Cc1ncc(CC(C)C)cn1)C(=O)c1cccc(c1)S(=O)(=O)N2 (atropisomer, axis not shown; (P)) [Compound 219, (5P,11R)-11-isobutyl-6-(2-isobutyl-6-methyl-phenyl)-12-[(5-isobutylpyrimidin-2-yl)methyl]-7-methyl-2,2-dioxo-9-oxa-2^6-thia-3,5,12,19-tetrazatricyclo[12.3.1.14,8]nonadeca-1(18),4(19),5,7,14,16-hexaen-13-one]",< 1000 nM,+++ (+++ is >600%),–
"Cc1cccc(COC(C)C)c1-c1nc2nc(c1C)OC[C@@H](CC(C)(C)C)N(Cc1nccc(N(C)C(C)C)n1)C(=O)c1cccc(c1)S(=O)(=O)N2 (atropisomer, axis not shown) [Compound 230]",–,–,HBE Activity at 10 μM ([1]; with 1 μM Ivacaftor): +++ (+++ is >600%)
"Cc1cccc(COC(C)C)c1-c1nc2nc(c1C)OC[C@@H](CC(C)(C)C)N(Cc1nccc(N(C)C(C)C)n1)C(=O)c1cccc(c1)S(=O)(=O)N2 (atropisomer, axis not shown) [Compound 229]",–,–,HBE Activity at 10 μM ([1]; with 1 μM Ivacaftor): +++ (+++ is >600%)
"Cc1cccc(CC2CCOCC2)c1-c1nc2nc(c1C)OC[C@@H](CC(C)(C)C)N(Cc1ncc(N3CCOCC3)cn1)C(=O)c1cccc(c1)S(=O)(=O)N2 (atropisomer, axis not shown; (M)) [Compound 217, (5M,11R)-11-(2,2-dimethylpropyl)-7-methyl-6-{2-methyl-6-[(oxan-4-yl)methyl]phenyl}-12-{[5-(morpholin-4-yl)pyrimidin-2-yl]methyl}-9-oxa-2λ^6-thia-3,5,12,19-tetraazatricyclo[12.3.1.14,8]nonadeca-1(17),4(19),5,7,14(18),15-hexaene-2,2,13-trione]",–,–,HBE Activity at 10 μM ([1]; with 1 μM Ivacaftor): ++ (++ is 30-60%)
Cc1cccc(C)c1-c1nc2nc(c1C)OC[C@@H](CC(C)C)N(C1CC3(CC3)C1)C(=O)c1cccc(c1)S(=O)(=O)N2 [Compound 75],–,–,Ent. B Max Activity [2]: +++ (+++ is >60%); EC50 [2]: < 1000 nM
Cc1cccc(C)c1-c1nc2nc(c1C)OC[C@@H](CC(C)C)N(C1CC3(CCN(C(=O)OC(C)C)CC3)C1)C(=O)c1cccc(c1)S(=O)(=O)N2 [Compound 70],–,–,Ent. B Max Activity [2]: +++ (+++ is >60%); EC50 [2]: < 1000 nM
Cc1cccc(C)c1-c1nc2nc(c1C)OC[C@@H](CC1(C(F)(F)F)CC1)N(C1CC3(CCN(C(=O)OC(C)C)CC3)C1)C(=O)c1cccc(c1)S(=O)(=O)N2 [Compound 76],–,–,Ent. B Max Activity [2]: +++ (+++ is >60%); EC50 [2]: < 1000 nM
COC1CC(N2C(=O)c3cccc(c3)S(=O)(=O)Nc3nc(c(C)c(-c4c(C)cccc4C)n3)OC[C@H]2CC(C)(C)C)C1 (stereo partly drawn) [Compound 84],–,–,Ent. B Max Activity [2]: +++ (+++ is >60%); EC50 [2]: < 1000 nM
"Cc1cccc(C)c1-c1nc2nc(c1CCC(C)(C)C)O[C@H](C)CNC(=O)c1cccc(c1)S(=O)(=O)N2 [Compound 120, (10R)-7-(3,3-Dimethylbutyl)-6-(2,6-dimethylphenyl)-10-methyl-2,2-dioxo-9-oxa-2λ^6-thia-3,5,12,19-tetrazatricyclo[12.3.1.14,8]nonadeca-1(18),4(19),5,7,14,16-hexaen-13-one]",–,–,Ent. B Max Activity [2]: +++ (+++ is >60%); EC50 [2]: < 1000 nM
Cc1cccc(C)c1-c1nc2nc(c1C1=CCOCC1)OC[C@@H](C)NC(=O)c1cccc(c1)S(=O)(=O)N2 [Compound 140],–,–,Ent. B Max Activity [2]: ++ (++ is 30-60%); EC50 [2]: 3000 to 30000 nM

# The next lines start with results.
EC50 ([1]; with 1 μM Ivacaftor),HBE Max Activity ([1]; with 1 μM Ivacaftor),SMILES,other results
< 1000 nM,+++ (+++ is >600%),"Cc1cccc(CC2CCCCC2)c1-c1nc2nc(c1C)OC[C@@H](CC(C)(C)C)N(Cc1ncc(N3CC(C)(C)C3)cn1)C(=O)c1cccc(c1)S(=O)(=O)N2 (atropisomer, axis not shown) [Compound 253]",–
< 1000 nM,+++ (+++ is >600%),"Cc1cccc(CC(C)C)c1-c1nc2nc(c1C)OC[C@@H](CC(C)(C)C)N(Cc1ncc(N3CCOCC3)cn1)C(=O)c1cccc(c1)S(=O)(=O)N2 (atropisomer, axis not shown) [Compound 296]",–
< 1000 nM,+++ (+++ is >600%),"Cc1cccc(CC2CCOCC2)c1-c1nc2nc(c1C)OC[C@@H](CC(C)(C)C)N(Cc1ncc(N3CCOCC3)cn1)C(=O)c1cccc(c1)S(=O)(=O)N2 (single isomer, unassigned) [Compound 218]",–
< 1000 nM,+++ (+++ is >600%),Cc1cccc(C)c1-c1nc2nc(c1C)OC[C@@H](CC(C)(C)C)N(Cc1ccc(N3CCCCC3)cn1)C(=O)c1cccc(c1)S(=O)(=O)N2 [Compound 85],–
< 1000 nM,+++ (+++ is >600%),"Cc1cccc(CC2CCCCC2)c1-c1nc2nc(c1C)OC[C@@H](CC(C)(C)C)N(Cc1ccc(N3CCCCC3)cn1)C(=O)c1cccc(c1)S(=O)(=O)N2 (atropisomer, axis not shown) [Compound 308]",–
< 1000 nM,+++ (+++ is >600%),"Cc1cccc(CC2CCCCC2)c1-c1nc2nc(c1C)OC[C@@H](CC(C)(C)C)N(Cc1ccc(N3CCOCC3)cn1)C(=O)c1cccc(c1)S(=O)(=O)N2 (single isomer, unassigned) [Compound 207]",–
< 1000 nM,+++ (+++ is >600%),"Cc1cccc(CC2CCCC2)c1-c1nc2nc(c1C)OC[C@@H](CC(C)(C)C)N(Cc1ccc(OC(C)C)cn1)C(=O)c1cccc(c1)S(=O)(=O)N2 (atropisomer, axis not shown) [Compound 267]",–
< 1000 nM,+++ (+++ is >600%),"Cc1cccc(CC2CCCCC2)c1-c1nc2nc(c1C)OC[C@@H](CC(C)(C)C)N(Cc1ncc(N3CCOCC3)cn1)C(=O)c1cccc(c1)S(=O)(=O)N2 (atropisomer, axis not shown) [Compound 305]",–
< 1000 nM,+++ (+++ is >600%),"Cc1cccc(C(C)C)c1-c1nc2nc(c1C)OC[C@@H](CC(C)(C)C)N(Cc1ccc(N3CCOCC3)cn1)C(=O)c1cccc(c1)S(=O)(=O)N2 (atropisomer, axis not shown) [Compound 300]",–
1000 to 3000 nM,+++ (+++ is >600%),"Cc1cccc(CC2CCCCC2)c1-c1nc2nc(c1C)OC[C@@H](CC(C)(C)C)N(Cc1ncc(N3CCC(C)(C)C3)cn1)C(=O)c1cccc(c1)S(=O)(=O)N2 (atropisomer, axis not shown) [Compound 254]",–
